Measured values taken from patent publication US20100197962A1 (priority 2005, published 2010).
Several values for one entry are separate records, joined by “and”; a condition that tells them apart may be missing. Equal entries are not always repeated.

Experiments:
[1] = system: locomotor hyperactivity induced by cocaine and morphine; test: Locomotor hyperactivity (hypermotility) induced by cocaine and morphine, Videotrack total distance; format: in vivo, rats; details: for effect on the spontaneous motility of the animal: alone, neboglamine 30 mg/kg, glycine 300 mg/kg i.p.
Description: The motor activity was measured with a video camera and recorded using the Videotrack 512 system as described by Garofalo (J. Pharm. Pharmacol. 48: 1290-1297, 1996).
The locomotor activity was recorded for 15 minutes and the total distance covered (in cm) by the animal was recorded by the computer connected to the video camera.

[2] = system: locomotor hyperactivity, tolerance and dependency induced by morphine; details: mice; Shin et al. 2003; cited from earlier work
[3] = system: inverse tolerance induced by chronic treatment with morphine; test: Inverse tolerance (increased sensitivity) induced by chronic treatment with morphine, locomotor activity
[4] = system: tolerance and abstinence crisis induced by chronic treatment with diazepam; test: Elevated zero maze: tolerance and abstinence crisis induced by chronic treatment with diazepam; format: in vivo, rats
Description: The experiment was performed in an elevated zero maze in accordance with the procedure described by Shepard et al. (Psychopharmacology 116: 56-64, 1994) with minor changes.
The rat, placed in one of the closed quadrants, had free access to all 4 of the quadrants (2 open and 2 closed) for a period of 5 minutes. A compound with anxiolytic activity produces a percentage increase in the time spent in the free quadrants.
In the acute studies, the compounds were administered via the s.c. route 30 minutes before the experiment, whereas in the tolerance and “withdrawal” experiments, they were administered via the s.c. route twice a day for 7 days and then retested 40 hours after the end of the chronic treatment.

[5] = system: memory and learning; details: various animal models; Garofalo et al. 1996; cited from earlier work
[6] = substance alone with physiological saline, neboglamine 30 or glycine 300 mg/kg i.p., cocaine 20 or morphine 10 mg/kg s.c., recorded 15 min
[7] = drug = morphine 10 mg/kg s.c., neboglamine 30 or glycine 300 mg/kg i.p. 30 min before
[8] = neboglamine 30 or glycine 300 mg/kg i.p. 30 min before morphine 10 mg/kg s.c.
[9] = neboglamine 30 or glycine 300 mg/kg i.p. 30 min before morphine 10 mg/kg s.c., recorded 15 min
[10] = chronic morphine 10 mg/kg s.c. x 7 days
[11] = acute, s.c. 30 min before, diazepam 5 mg/kg, neboglamine 30 mg/kg
[12] = acute, s.c. 30 min before, diazepam 5 mg/kg, neboglamine 30 mg/kg, 5 min test
[13] = withdrawal (D-W): diazepam for 7 days, retested 40 hours later with physiological saline
[14] = neboglamine 30 mg/kg s.c. x 2 (x7 days) + 30 co-administered with chronic diazepam (D-C) + 5 (D), tolerance
[15] = withdrawal: diazepam and neboglamine for 7 days, retested 40 hours later with physiological saline
[16] = neboglamine 30 mg/kg i.p. 30 min before morphine 10 mg/kg s.c., x 7 days

COC(=O)[C@H]1[C@@H](OC(=O)c2ccccc2)C[C@@H]2CC[C@H]1N2C [Cocaine, cocaine, reference compound]
% increase vs. physiological saline [1, 6]: 75.7% | Total distance (cm) [1, 6]: 5800 cm

NCC(=O)O [Glycine, glycine, reference compound]
inhibition of morphine-induced locomotor hyperactivity, tolerance and dependency [2]: capable of inhibiting the locomotor hyperactivity, tolerance and dependency induced by morphine | effect on the spontaneous motility of the animal [1]: do not significantly alter | % inhibition vs. the drug (D) [1, 7]: 52.5% | % inhibition vs. the drug (D) ([1]; drug = morphine 10 mg/kg s.c., neboglamine 30 or glycine 300 mg/kg i.p. 30 min before, listed as G): 52.5^(2) % | % increase vs. physiological saline [1, 8]: 28.8% | Total distance (cm) [1, 9]: 4250 cm | Total distance (cm) [1, 6]: 2900 cm

CN1CC[C@]23c4c5ccc(O)c4O[C@H]2[C@@H](O)C=C[C@H]3[C@H]1C5 [Morphine, morphine, reference compound]
% increase vs. physiological saline [1, 6]: 60.6% | Total distance (cm) [1, 6]: 5300 cm | % increase vs. physiological saline [3, 10]: 128.6% | Total distance (cm) [3, 10]: 6400 cm | increase in the motor activity by chronic treatment compared with the acute effect of the drug ([3]; chronic vs acute morphine 10 mg/kg s.c.): about 50%

CN1C(=O)CN=C(c2ccccc2)c2cc(Cl)ccc21 [diazepam, reference compound]
% effect vs. controls (saline) [4, 11]: 262.5% | Time (seconds) spent in the open quadrants [4, 12]: 105 s | Time (seconds) spent in the open quadrants ([4]; chronic diazepam (D-C) 5 mg/kg s.c. x 2 (x7 days) + 5 (D), tolerance): 58 s | % effect vs. controls (saline) ([4]; chronic diazepam (D-C) 5 mg/kg s.c. x 2 (x7 days) + 5 (D), tolerance, 5 mg/kg): 145% | % effect vs. controls (saline) [4, 13]: 37.5% | Time (seconds) spent in the open quadrants [4, 13]: 15 s

(S)-4-amino-N-(4,4-dimethylcyclohexyl)glutamic acid [Neboglamine]
% effect vs. controls (saline) [4, 11]: 127% | Time (seconds) spent in the open quadrants [4, 12]: 51 s | % effect vs. controls (saline) ([4]; acute, s.c. 30 min before, diazepam 5 mg/kg, neboglamine 30 mg/kg, listed as neboglamine): 127.0% | % effect vs. controls (saline) [4, 14]: 192.5% | Time (seconds) spent in the open quadrants [4, 14]: 77 s | % effect vs. controls (saline) [4, 15]: 110.0% | Time (seconds) spent in the open quadrants [4, 15]: 44 s | % effect vs. controls (saline) ([4]; withdrawal: diazepam and neboglamine for 7 days, retested 40 hours later with physiological saline, listed as neboglamine): 110% | % increase vs. physiological saline ([1]; 30 mg/kg i.p. 30 min before cocaine 20 mg/kg s.c.): 9.1% | Total distance (cm) ([1]; 30 mg/kg i.p. 30 min before cocaine 20 mg/kg s.c., recorded 15 min): 3600 cm | effect on the spontaneous motility of the animal [1]: do not significantly alter | % inhibition vs. the drug (D) ([1]; drug = cocaine 20 mg/kg s.c., 30 mg/kg i.p. 30 min before): 88% | % inhibition vs. the drug (D) ([1]; drug = cocaine 20 mg/kg s.c., 30 mg/kg i.p. 30 min before, listed as N): 88.0^(1) % | % inhibition vs. the drug (D) [1, 7]: 77.5% | % inhibition vs. the drug (D) ([1]; drug = morphine 10 mg/kg s.c., neboglamine 30 or glycine 300 mg/kg i.p. 30 min before, listed as N): 77.5^(1) % | % increase vs. physiological saline [1, 8]: 13.6% | Total distance (cm) [1, 9]: 3750 cm | Total distance (cm) [1, 6]: 3150 cm | promoting memory and learning [5]: advantageous properties of promoting memory and learning | % increase vs. physiological saline [3, 16]: 37.5% | % inhibition of the hypersensitivity of morphine [3, 16]: 70.8% and 70.8^(1) % | Total distance (cm) [3, 16]: 3850 cm
